Each block holds one compound with its values, some of them ahead of it.
What was measured:
[1] = target: T1, Protein deacetylase HDAC6 (Homo sapiens, UniProt Q9UBN7); experiment: Inhibition of HDAC6 (unknown origin) using carboxyfluorescein (FAM)-labeled acetylated peptide substrate by microfluidic capillary electrophoresis
T1 sequence (Q9UBN7 whole entry): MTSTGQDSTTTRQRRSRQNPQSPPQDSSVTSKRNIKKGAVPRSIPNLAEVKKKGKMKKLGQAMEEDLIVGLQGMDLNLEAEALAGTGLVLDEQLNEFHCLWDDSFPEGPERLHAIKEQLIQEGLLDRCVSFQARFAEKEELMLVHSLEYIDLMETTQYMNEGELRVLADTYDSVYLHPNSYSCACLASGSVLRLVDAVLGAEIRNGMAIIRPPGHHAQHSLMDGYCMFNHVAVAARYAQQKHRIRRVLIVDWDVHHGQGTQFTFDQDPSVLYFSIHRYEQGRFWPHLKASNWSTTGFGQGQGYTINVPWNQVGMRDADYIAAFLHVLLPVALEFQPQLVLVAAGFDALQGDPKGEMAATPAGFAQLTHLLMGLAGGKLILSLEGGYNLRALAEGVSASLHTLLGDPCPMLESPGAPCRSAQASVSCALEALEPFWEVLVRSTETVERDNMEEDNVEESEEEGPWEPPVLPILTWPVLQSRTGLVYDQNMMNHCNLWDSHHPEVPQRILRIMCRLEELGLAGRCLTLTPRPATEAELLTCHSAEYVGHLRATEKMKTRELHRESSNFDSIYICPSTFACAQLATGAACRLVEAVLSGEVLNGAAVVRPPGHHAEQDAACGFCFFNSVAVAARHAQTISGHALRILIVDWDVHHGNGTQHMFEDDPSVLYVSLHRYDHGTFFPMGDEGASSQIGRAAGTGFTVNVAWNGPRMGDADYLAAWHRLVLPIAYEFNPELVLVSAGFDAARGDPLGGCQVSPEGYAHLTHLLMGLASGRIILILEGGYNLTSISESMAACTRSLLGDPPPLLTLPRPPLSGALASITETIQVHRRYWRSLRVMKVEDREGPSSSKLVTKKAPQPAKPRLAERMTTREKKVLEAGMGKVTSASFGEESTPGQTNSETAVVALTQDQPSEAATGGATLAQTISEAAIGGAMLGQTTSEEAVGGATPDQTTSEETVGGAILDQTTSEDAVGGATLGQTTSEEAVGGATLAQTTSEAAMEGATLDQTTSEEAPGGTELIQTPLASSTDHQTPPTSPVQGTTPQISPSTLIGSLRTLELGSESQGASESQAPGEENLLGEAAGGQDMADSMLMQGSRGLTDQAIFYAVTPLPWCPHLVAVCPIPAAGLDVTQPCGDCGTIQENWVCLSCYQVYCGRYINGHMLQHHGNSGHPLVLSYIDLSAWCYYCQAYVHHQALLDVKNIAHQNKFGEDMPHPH

Histone deacetylase 1 = Histone deacetylase 1 (Homo sapiens, UniProt Q13547); experiment: Inhibition of HDAC1 (unknown origin) using carboxyfluorescein (FAM)-labeled acetylated peptide substrate preincubated for 3 hrs by microfluidic capillary electrophoresis
Chain of Histone deacetylase 1 (Q13547 whole entry): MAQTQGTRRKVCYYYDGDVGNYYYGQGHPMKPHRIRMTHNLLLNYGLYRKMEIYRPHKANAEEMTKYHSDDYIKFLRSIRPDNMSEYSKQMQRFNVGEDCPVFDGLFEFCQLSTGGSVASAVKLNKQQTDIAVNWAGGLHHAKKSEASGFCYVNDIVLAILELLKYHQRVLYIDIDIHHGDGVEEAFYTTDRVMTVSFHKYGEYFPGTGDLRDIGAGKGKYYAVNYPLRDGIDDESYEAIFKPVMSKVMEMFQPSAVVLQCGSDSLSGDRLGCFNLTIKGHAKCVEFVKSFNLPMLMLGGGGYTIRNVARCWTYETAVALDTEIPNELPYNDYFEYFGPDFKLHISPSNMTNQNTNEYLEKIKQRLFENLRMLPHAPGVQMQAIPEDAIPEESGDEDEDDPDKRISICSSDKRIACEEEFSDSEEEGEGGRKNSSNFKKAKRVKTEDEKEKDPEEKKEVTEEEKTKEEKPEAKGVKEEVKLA

Histone deacetylase 7 [2] = target: T2, Histone deacetylase 7 (Homo sapiens, UniProt Q8WUI4); experiment: Inhibition of human N-terminal GST-tagged HDAC7 (518 to end residues) expressed in baculovirus infected sf9 cells using carboxyfluorescein (FAM)-labeled acetylated peptide substrate by microfluidic capillary electrophoresis
T2 sequence (Q8WUI4 whole entry): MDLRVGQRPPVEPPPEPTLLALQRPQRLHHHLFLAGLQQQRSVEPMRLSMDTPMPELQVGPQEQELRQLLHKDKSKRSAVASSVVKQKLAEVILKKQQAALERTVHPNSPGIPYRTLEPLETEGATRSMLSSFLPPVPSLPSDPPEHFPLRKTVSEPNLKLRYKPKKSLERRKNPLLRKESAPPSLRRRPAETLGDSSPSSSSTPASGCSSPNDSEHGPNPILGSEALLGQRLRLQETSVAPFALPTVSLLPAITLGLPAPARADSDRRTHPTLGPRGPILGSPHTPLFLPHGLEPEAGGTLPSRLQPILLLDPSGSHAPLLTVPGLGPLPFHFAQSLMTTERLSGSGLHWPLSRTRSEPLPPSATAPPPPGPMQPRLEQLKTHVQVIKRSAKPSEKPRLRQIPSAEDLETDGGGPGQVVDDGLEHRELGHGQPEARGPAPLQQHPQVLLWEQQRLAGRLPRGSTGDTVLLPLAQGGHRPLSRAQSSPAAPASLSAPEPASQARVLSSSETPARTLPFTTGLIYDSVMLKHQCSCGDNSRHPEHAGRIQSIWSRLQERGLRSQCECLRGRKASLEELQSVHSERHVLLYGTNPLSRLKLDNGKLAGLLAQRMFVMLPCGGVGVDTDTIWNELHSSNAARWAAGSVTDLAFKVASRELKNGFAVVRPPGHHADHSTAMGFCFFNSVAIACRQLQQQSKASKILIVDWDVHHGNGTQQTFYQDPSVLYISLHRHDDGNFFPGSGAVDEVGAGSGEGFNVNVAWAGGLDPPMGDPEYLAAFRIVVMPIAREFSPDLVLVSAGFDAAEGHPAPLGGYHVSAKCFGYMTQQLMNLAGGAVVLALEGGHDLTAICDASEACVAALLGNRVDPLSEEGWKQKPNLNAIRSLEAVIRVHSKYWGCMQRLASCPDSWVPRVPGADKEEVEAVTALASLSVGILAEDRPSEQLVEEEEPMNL

Histone deacetylase 5 [3] = target: T3, Histone deacetylase 5 (Homo sapiens, UniProt Q9UQL6); experiment: Inhibition of human HDAC5 using carboxyfluorescein (FAM)-labeled acetylated peptide substrate by microfluidic capillary electrophoresis
T3 sequence (Q9UQL6 whole entry): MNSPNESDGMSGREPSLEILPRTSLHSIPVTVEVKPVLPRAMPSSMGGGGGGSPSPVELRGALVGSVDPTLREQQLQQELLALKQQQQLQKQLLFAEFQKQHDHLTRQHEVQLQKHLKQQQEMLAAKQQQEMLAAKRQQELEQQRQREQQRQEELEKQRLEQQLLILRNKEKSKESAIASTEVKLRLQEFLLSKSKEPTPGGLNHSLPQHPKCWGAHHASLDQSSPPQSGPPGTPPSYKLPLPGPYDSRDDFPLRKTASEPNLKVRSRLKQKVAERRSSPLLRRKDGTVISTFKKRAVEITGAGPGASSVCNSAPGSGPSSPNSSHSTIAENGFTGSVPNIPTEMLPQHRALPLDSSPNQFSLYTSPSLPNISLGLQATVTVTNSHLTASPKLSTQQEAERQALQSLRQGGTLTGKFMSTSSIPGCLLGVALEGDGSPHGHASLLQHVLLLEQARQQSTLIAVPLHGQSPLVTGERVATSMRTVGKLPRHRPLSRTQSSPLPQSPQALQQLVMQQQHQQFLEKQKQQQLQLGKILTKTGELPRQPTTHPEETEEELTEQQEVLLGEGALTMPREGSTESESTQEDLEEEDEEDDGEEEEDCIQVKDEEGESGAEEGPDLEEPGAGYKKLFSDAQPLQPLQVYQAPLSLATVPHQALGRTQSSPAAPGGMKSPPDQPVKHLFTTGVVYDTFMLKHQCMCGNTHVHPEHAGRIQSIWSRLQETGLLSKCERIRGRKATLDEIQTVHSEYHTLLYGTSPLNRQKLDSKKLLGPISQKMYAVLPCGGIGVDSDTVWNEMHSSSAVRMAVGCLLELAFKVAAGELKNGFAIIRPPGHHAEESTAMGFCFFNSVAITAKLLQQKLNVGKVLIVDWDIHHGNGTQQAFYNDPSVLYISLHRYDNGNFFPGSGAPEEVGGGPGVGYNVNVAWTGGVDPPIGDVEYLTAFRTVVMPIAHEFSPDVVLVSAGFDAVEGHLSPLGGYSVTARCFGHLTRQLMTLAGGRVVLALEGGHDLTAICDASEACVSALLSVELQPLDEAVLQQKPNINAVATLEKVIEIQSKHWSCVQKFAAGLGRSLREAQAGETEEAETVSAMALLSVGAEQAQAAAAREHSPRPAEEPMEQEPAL

Histone deacetylase 2 [4] = target: T4, Histone deacetylase 2 (Homo sapiens, UniProt Q92769); experiment: Inhibition of human HDAC2 expressed in Sf9 cells using carboxyfluorescein (FAM)-labeled acetylated peptide substrate preincubated for 3 hrs by microfluidic capillary electrophoresis
T4 sequence (Q92769 whole entry, the tested form may be a part): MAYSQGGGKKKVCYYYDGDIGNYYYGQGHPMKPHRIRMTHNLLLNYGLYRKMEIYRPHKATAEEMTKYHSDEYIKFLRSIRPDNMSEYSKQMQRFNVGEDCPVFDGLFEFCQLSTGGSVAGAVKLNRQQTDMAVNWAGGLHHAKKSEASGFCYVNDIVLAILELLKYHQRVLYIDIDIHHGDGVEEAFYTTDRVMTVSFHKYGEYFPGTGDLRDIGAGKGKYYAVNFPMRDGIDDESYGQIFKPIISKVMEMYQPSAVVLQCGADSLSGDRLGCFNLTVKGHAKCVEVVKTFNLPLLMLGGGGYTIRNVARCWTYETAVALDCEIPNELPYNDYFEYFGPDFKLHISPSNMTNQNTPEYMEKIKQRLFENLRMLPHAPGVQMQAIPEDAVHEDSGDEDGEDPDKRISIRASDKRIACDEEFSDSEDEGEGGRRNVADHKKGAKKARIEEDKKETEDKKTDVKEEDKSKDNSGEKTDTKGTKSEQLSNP

Histone deacetylase 9 [5] = target: T5, Histone deacetylase 9 (Homo sapiens, UniProt Q9UKV0); experiment: Inhibition of C-terminal His-tagged human HDAC9 (604 to 1066 residues) expressed in baculovirus infected sf9 cells using carboxyfluorescein (FAM)-labeled acetylated peptide substrate by microfluidic capillary electrophoresis
T5 sequence (Q9UKV0 whole entry, the tested form may be a part): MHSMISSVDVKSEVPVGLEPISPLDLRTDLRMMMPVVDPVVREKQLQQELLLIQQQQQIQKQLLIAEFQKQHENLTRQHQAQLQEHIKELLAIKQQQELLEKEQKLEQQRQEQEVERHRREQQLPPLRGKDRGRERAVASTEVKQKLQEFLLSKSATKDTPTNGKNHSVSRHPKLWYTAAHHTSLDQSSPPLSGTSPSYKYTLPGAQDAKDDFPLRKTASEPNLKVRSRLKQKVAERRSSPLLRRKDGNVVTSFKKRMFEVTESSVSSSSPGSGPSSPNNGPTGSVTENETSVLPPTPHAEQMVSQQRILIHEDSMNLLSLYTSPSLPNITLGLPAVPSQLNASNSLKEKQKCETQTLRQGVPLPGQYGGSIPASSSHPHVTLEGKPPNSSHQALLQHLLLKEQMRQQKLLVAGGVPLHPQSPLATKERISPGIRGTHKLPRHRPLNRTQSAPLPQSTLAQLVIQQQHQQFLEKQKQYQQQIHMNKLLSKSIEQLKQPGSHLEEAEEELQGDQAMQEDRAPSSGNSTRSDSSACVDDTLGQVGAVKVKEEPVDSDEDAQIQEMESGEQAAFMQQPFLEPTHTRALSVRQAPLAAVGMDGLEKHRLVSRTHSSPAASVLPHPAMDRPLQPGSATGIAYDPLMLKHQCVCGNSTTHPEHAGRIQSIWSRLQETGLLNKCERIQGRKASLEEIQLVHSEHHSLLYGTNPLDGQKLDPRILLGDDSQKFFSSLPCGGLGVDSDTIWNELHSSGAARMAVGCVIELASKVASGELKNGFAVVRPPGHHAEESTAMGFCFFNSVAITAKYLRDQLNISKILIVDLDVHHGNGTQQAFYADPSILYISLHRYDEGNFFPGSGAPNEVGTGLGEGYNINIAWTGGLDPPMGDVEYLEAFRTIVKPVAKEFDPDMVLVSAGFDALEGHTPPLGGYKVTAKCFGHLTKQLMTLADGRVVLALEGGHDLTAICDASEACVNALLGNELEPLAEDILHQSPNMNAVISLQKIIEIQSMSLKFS

Histone deacetylase 8 [6] = target: T6, Histone deacetylase 8 (Homo sapiens, UniProt Q9BY41); experiment: Inhibition of recombinant human C-terminal His-tagged HDAC8 expressed in baculovirus infected sf9 cells using carboxyfluorescein (FAM)-labeled acetylated peptide substrate by microfluidic capillary electrophoresis
T6 sequence (Q9BY41 whole entry): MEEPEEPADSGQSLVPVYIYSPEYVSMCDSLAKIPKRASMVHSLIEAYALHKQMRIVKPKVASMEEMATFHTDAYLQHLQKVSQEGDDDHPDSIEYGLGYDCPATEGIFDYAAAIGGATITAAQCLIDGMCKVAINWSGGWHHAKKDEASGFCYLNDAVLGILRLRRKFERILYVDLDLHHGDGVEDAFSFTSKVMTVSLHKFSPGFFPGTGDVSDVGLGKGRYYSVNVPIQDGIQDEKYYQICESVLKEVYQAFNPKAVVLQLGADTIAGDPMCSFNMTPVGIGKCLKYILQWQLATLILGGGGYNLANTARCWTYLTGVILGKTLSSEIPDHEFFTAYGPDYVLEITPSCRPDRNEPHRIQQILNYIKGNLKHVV

Histone deacetylase 4 = Histone deacetylase 4 (Homo sapiens, UniProt P56524); experiment: Inhibition of human HDAC4 expressed in baculovirus infected sf9 cells using carboxyfluorescein (FAM)-labeled acetylated peptide substrate by microfluidic capillary electrophoresis
Chain of Histone deacetylase 4 (P56524 whole entry): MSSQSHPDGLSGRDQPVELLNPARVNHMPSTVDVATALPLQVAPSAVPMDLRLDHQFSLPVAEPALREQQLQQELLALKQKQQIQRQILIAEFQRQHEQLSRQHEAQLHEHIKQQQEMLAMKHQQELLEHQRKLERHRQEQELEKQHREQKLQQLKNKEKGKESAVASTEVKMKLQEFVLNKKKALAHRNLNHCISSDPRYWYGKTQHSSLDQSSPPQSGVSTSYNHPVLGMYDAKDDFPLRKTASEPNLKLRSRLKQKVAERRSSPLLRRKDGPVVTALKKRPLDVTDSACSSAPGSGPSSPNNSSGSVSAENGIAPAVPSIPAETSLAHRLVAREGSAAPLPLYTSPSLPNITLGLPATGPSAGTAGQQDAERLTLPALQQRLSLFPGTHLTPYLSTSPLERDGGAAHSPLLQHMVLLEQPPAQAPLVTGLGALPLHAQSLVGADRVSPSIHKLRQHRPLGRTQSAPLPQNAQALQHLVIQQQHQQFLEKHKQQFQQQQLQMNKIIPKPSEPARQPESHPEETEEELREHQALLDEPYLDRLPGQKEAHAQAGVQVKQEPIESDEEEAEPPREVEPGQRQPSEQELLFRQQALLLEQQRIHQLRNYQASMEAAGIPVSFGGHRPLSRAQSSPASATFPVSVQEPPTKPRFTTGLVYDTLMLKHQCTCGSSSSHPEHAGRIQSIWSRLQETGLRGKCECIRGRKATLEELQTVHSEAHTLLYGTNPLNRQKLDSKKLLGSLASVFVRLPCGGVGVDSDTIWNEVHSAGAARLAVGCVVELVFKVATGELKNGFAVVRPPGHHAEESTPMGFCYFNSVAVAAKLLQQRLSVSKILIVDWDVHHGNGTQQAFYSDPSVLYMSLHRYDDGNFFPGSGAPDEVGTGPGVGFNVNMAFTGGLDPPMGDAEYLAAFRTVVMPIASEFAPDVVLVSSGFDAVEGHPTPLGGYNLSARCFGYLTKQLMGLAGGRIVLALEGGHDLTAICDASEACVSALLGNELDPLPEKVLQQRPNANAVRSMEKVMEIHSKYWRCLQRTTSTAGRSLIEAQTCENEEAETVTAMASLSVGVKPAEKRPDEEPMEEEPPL

Homo sapiens [7] = species on record: Homo sapiens; experiment: Selectivity ratio of IC50 for human HDAC2 expressed in Sf9 cells to IC50 for HDAC6 (unknown origin)
[8] = target: T1, Protein deacetylase HDAC6; experiment: Inhibition of HDAC6 (unknown origin) using acetyl-lysine tripeptide substrate as substrate preincubated for 24 hrs followed substrate addition and shaken for 5 secs and measured over 30 mins
Homo sapiens [9] = species on record: Homo sapiens; experiment: Selectivity ratio of IC50 for human C-terminal His-tagged HDAC3 (1 to 428 residues)/human N-terminal GST-tagged NcoR2 (395 to 489 residues) expressed in sf9 cells to IC50 for HDAC6 (unknown origin)
Homo sapiens [10] = species on record: Homo sapiens; experiment: Selectivity ratio of IC50 for recombinant human C-terminal His-tagged HDAC8 expressed in baculovirus infected sf9 cells to IC50 for HDAC6 (unknown origin)
Homo sapiens [11] = species on record: Homo sapiens; experiment: Selectivity ratio of IC50 for human HDAC5 to IC50 for HDAC6 (unknown origin)
Homo sapiens [12] = species on record: Homo sapiens; experiment: Selectivity ratio of IC50 for HDAC1 (unknown origin) to IC50 for HDAC6 (unknown origin)
Homo sapiens [13] = species on record: Homo sapiens; experiment: Selectivity ratio of IC50 for C-terminal His-tagged human HDAC9 (604 to 1066 residues) expressed in baculovirus infected sf9 cells to IC50 for HDAC6 (unknown origin)
Homo sapiens [14] = species on record: Homo sapiens; experiment: Selectivity ratio of IC50 for human HDAC4 expressed in Sf9 cells to IC50 for HDAC6 (unknown origin)
Homo sapiens [15] = species on record: Homo sapiens; experiment: Selectivity ratio of IC50 for human N-terminal GST-tagged HDAC7 (518 to end residues) expressed in baculovirus infected sf9 cells to IC50 for HDAC6 (unknown origin)
Histone deacetylase 5 [16] = target: T3, Histone deacetylase 5; experiment: Inhibition of human full length recombinant HDAC5 using p53 (379 to 382 residues) Ac-LGK(TFA)-AMC as substrate preincubated for 5 to 10 mins followed by substrate addition and measured after 2 hrs by fluorescence method
Histone deacetylase 8 [17] = target: T6, Histone deacetylase 8; experiment: Inhibition of human full length recombinant HDAC8 using p53 (379 to 382 residues) (RHK(Ac)K(Ac)AMC as substrate preincubated for 5 to 10 mins followed by substrate addition and measured after 2 hrs by fluorescence method
[18] = target: T7, Polyamine deacetylase HDAC10 (Homo sapiens, UniProt Q969S8); experiment: Inhibition of human full length recombinant HDAC10 using p53 (379 to 382 residues) (RHKK(Ac)AMC) as substrate preincubated for 5 to 10 mins followed by substrate addition and measured after 2 hrs by fluorescence method
T7 sequence (Q969S8 whole entry): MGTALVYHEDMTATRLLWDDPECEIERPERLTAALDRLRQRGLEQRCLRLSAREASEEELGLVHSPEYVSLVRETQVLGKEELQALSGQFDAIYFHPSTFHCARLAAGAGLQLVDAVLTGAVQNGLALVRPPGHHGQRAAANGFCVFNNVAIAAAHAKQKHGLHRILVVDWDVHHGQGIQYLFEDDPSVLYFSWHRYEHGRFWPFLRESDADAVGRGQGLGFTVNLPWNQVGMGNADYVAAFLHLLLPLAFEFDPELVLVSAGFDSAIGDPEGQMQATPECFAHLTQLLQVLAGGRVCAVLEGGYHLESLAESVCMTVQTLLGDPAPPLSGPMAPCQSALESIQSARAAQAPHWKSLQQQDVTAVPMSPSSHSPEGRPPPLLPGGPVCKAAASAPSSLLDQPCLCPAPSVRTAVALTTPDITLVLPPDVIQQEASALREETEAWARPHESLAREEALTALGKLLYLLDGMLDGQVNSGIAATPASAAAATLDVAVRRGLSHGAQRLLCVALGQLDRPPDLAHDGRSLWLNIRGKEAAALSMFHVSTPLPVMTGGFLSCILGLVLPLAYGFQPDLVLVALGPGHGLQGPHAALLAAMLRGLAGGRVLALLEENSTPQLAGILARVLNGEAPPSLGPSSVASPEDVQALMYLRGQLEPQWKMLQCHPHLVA

[19] = target: Histone deacetylase 3/Nuclear receptor corepressor 2 (HDAC3/NCoR2) (Homo sapiens, UniProt O15379); experiment: Inhibition of human full length recombinant HDAC3/ NcoR2 using p53 (379 to 382 residues) (RHKK(Ac)AMC) as substrate preincubated for 5 to 10 mins followed by substrate addition and measured after 2 hrs by fluorescence method; type: protein-complex assay
Histone deacetylase 2 [20] = target: T4, Histone deacetylase 2
Histone deacetylase 9 [21] = target: T5, Histone deacetylase 9; experiment: Inhibition of human full length recombinant HDAC9 using p53 (379 to 382 residues) Ac-LGK(TFA)-AMC as substrate preincubated for 5 to 10 mins followed by substrate addition and measured after 2 hrs by fluorescence method
Histone deacetylase 7 [22] = target: T2, Histone deacetylase 7; experiment: Inhibition of human full length recombinant HDAC7 using p53 (379 to 382 residues) Ac-LGK(TFA)-AMC as substrate preincubated for 5 to 10 mins followed by substrate addition and measured after 2 hrs by fluorescence method
Histone deacetylase 11 = target: T8, Histone deacetylase 11 (Homo sapiens, UniProt Q96DB2); experiment: Inhibition of human full length recombinant HDAC11 using p53 (379 to 382 residues) (RHKK(Ac)AMC) as substrate preincubated for 5 to 10 mins followed by substrate addition and measured after 2 hrs by fluorescence method
T8 sequence (Q96DB2 whole entry): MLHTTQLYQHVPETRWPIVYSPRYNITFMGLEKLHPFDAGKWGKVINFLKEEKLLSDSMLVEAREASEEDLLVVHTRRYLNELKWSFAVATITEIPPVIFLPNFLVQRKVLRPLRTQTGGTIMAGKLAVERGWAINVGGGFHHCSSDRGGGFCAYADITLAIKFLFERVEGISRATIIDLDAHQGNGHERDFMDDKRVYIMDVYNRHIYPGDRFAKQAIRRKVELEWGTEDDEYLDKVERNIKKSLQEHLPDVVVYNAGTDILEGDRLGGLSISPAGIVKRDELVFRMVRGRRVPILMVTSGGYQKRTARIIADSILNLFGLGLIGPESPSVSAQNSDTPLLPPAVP

IC50 [1]: > 30 µM
IC50 (Histone deacetylase 1): 1 µM
IC50 (Histone deacetylase 7 [2]): > 30 µM
IC50 (Histone deacetylase 5 [3]): > 30 µM
IC50 (Histone deacetylase 2 [4]): 1 µM
IC50 (Histone deacetylase 9 [5]): > 30 µM
IC50 (Histone deacetylase 8 [6]): > 30 µM
IC50 (Histone deacetylase 4): > 30 µM
Compound: CC(=O)Nc1ccc(C(=O)Nc2ccc(F)cc2N)cc1

IC50 [8]: 0.003 µM
Ratio IC50 (Homo sapiens [11]): > 250
Ratio IC50 (Homo sapiens [12]): > 250
Compound: O=C(NO)c1cnc(C2(c3ccccc3)CCC(F)(F)CC2)nc1
Ratio IC50 (Homo sapiens [7]): > 250
Ratio IC50 (Homo sapiens [9]): > 250
Ratio IC50 (Homo sapiens [10]): > 250
Ratio IC50 (Homo sapiens [13]): > 250
Ratio IC50 (Homo sapiens [14]): > 250
Ratio IC50 (Homo sapiens [15]): > 250

IC50 (Histone deacetylase 5 [16]): 4 µM
IC50 (Histone deacetylase 8 [17]): 4 µM
IC50 [18]: 26 µM
IC50 [19]: 30 µM
IC50 (Histone deacetylase 2 [20]): 33 µM
IC50 (Histone deacetylase 9 [21]): 4 µM
IC50 (Histone deacetylase 7 [22]): 5 µM
IC50 (Histone deacetylase 11): 6 µM
Compound: O=C(NO)c1ccc(CN2CCCc3cc(Cl)ccc32)cc1
